{
  "source": "ChEMBL document CHEMBL1817645",
  "about": "“Synthesis and pharmacological evaluation of 1-alkyl-N-[2-ethyl-2-(4-fluorophenyl)butyl]piperidine-4-carboxamide derivatives as novel antihypertensive agents” (Bioorg Med Chem, 2011)",
  "note": "Calls of active or inactive are those of the source. The calls are words filed in the database; no cut-off is given here.",
  "data": [
    {"system": "Rattus norvegicus", "assay": "Toxicity in spontaneously hypertensive rat assessed as effect on reflex tachycardia at 30 mg/kg, po after 8 hrs", "format": "organism-based", "parameters": "dose 30 mg/kg, route oral", "settings": "in vivo", "values": [
      {"smiles": "CCC(CC)(CNC(=O)C1CCN(CCc2ccccc2)CC1)c1ccc(F)cc1", "Activity": "Non-toxic"}
    ]},
    {"system": "Rattus norvegicus", "assay": "Antihypertensive activity in spontaneously hypertensive rat assessed as reduction of mean blood pressure at 30 mg/kg, po after 8 hrs", "format": "functional, organism-based", "parameters": "dose 30 mg/kg", "settings": "not given", "values": [
      {"smiles": "CCC(CC)(CNC(=O)C1CCN(CCc2ccccc2)CC1)c1ccc(F)cc1", "Activity": "Active"}
    ]},
    {"system": "Rattus norvegicus", "assay": "Antihypertensive activity in spontaneously hypertensive rat assessed as reduction of mean blood pressure at 30 mg/kg, po", "format": "functional", "parameters": "scale not given: the % may be the effect or the level left", "settings": "not given", "units": {"Activity": "%"}, "values": [
      {"smiles": "CCC(CC)(CNC(=O)C1CCN(CCc2ccccc2)CC1)c1ccc(F)cc1", "Activity": 22}
    ]},
    {"target": "Voltage-dependent T-type calcium channel subunit alpha-1G (Homo sapiens, UniProt O43497)", "sequence (O43497 whole entry)": "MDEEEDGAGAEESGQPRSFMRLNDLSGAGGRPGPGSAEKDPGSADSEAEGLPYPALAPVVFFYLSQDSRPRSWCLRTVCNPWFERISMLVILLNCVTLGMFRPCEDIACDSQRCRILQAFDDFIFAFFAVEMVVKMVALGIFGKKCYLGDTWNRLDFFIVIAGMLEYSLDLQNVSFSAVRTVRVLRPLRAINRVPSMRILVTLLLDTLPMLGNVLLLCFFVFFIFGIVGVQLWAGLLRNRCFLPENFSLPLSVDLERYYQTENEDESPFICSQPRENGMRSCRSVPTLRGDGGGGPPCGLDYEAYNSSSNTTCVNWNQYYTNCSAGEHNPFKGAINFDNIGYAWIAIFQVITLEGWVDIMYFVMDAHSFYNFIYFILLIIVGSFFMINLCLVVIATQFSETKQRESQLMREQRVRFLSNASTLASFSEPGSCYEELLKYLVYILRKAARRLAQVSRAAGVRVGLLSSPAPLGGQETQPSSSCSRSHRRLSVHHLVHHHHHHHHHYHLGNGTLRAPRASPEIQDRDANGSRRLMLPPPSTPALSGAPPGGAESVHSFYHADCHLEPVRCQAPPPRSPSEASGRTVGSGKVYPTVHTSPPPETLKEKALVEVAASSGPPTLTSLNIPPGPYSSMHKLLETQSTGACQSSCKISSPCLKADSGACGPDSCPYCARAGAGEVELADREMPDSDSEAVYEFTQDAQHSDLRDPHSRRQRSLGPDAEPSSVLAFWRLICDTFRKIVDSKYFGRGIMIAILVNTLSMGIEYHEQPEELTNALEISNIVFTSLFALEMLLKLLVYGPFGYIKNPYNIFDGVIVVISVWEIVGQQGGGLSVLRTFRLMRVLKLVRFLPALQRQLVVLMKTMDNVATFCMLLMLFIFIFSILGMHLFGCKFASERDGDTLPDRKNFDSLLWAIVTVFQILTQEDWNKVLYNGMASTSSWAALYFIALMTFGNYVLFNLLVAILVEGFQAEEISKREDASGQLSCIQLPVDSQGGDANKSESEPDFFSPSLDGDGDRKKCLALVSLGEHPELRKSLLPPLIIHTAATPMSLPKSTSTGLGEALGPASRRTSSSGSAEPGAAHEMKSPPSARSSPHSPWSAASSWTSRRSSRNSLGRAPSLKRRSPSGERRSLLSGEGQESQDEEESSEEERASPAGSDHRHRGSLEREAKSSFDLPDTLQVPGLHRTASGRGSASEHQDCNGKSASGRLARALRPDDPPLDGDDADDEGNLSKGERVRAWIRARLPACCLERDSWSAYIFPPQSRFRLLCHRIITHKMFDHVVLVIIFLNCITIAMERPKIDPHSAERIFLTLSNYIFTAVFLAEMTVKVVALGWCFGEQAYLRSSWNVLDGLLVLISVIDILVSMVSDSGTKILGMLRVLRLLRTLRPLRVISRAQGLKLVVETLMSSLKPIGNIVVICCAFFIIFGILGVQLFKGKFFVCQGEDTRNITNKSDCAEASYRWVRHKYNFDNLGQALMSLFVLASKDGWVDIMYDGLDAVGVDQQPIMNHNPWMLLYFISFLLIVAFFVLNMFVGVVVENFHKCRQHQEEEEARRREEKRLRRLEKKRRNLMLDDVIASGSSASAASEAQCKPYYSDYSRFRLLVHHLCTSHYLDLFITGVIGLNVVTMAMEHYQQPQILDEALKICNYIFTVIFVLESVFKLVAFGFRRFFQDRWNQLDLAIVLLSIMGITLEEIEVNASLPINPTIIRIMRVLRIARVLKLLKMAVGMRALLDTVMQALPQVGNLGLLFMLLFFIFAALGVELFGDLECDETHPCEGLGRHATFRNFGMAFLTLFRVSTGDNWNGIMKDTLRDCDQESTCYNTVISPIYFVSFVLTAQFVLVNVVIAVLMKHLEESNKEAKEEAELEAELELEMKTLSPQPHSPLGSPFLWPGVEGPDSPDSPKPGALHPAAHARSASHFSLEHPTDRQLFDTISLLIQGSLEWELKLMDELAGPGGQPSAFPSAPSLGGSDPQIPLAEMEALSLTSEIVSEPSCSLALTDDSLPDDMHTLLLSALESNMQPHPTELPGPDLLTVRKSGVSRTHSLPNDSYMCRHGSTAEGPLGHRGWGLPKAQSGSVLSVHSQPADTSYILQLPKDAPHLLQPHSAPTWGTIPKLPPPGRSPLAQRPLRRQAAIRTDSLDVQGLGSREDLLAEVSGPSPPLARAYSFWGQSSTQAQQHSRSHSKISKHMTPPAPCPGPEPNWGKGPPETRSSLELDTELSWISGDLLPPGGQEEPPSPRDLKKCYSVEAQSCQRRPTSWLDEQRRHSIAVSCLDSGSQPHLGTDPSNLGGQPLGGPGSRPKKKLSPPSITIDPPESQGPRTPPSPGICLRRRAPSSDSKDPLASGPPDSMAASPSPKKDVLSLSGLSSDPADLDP", "assay": "Inhibition of human Cav3.1 alpha1G expressed in HEK293 cells assessed as inhibition of calcium influx by FLIPR assay", "format": "cell-based", "settings": "not given", "units": {"IC50": "nM"}, "values": [
      {"smiles": "CCC(CC)(CNC(=O)C1CCN(CCc2ccccc2OC)CC1)c1ccc(F)cc1", "IC50": 170},
      {"smiles": "Fc1ccc(C2(CNCC3CCN(Cc4ccccc4)CC3)CCCCC2)cc1", "IC50": 1200},
      {"smiles": "COc1ccc(CN2CCC(C(=O)NCC3(c4ccc(F)cc4)CCCCC3)CC2)cc1OC", "IC50": 320},
      {"smiles": "CCC(CC)(CNC(=O)C1CCN(CCc2ccccc2F)CC1)c1ccc(F)cc1", "IC50": 90},
      {"smiles": "O=C(NCC1(c2ccc(F)cc2)CCC1)C1CCN(Cc2ccccc2)CC1", "IC50": 390},
      {"smiles": "CCC(CC)(CNC(=O)C1CCN(Cc2ccccc2F)CC1)c1ccc(F)cc1", "IC50": 36},
      {"smiles": "CN(CC1(c2ccc(F)cc2)CCCCC1)C(=O)C1CCN(Cc2ccccc2)CC1", "IC50": 750},
      {"smiles": "CCC(CC)(CNC(=O)C1CCN(Cc2cccc(F)c2)CC1)c1ccc(F)cc1", "IC50": 130},
      {"smiles": "O=C(CCC1(c2ccc(F)cc2)CCCCC1)C1CCN(Cc2ccccc2)CC1", "IC50": 2000},
      {"smiles": "O=C(NCC1(c2ccc(F)cc2)CCCCC1)C1CCN(Cc2ccccc2)CC1", "IC50": 510},
      {"smiles": "CCC(CC)(CNC(=O)C1CCN(CCCCc2ccccc2)CC1)c1ccc(F)cc1", "IC50": 250},
      {"smiles": "O=C(NCC1(c2ccc(F)cc2)CCOCC1)C1CCN(Cc2ccccc2)CC1", "IC50": 2200},
      {"smiles": "CC(C)(CNC(=O)C1CCN(Cc2ccccc2)CC1)c1ccc(F)cc1", "IC50": 130},
      {"smiles": "CCC(CC)(CNC(=O)C1CCN(Cc2ccc(F)cc2)CC1)c1ccc(F)cc1", "IC50": 82},
      {"smiles": "CCC(CC)(CNC(=O)C1CCN(Cc2ccc(OC)cc2)CC1)c1ccc(F)cc1", "IC50": 200},
      {"smiles": "O=C(NCC1(c2ccc(F)cc2)CCCC1)C1CCN(Cc2ccccc2)CC1", "IC50": 220},
      {"smiles": "CCC(CC)(CNC(=O)C1CCN(Cc2cccc(OC)c2)CC1)c1ccc(F)cc1", "IC50": 94},
      {"smiles": "CCC(CC)(CNC(=O)C1CCN(CCOc2ccccc2)CC1)c1ccc(F)cc1", "IC50": 260},
      {"smiles": "CCC(CC)(CNC(=O)C1CCN(CCc2cccc(F)c2)CC1)c1ccc(F)cc1", "IC50": 130},
      {"smiles": "CCCC(CCC)(CNC(=O)C1CCN(Cc2ccccc2)CC1)c1ccc(F)cc1", "IC50": 370},
      {"smiles": "CCC(CC)(CNC(=O)C1CCN(Cc2ccccc2)CC1)c1ccc(F)cc1", "IC50": 85},
      {"smiles": "CCC(CC)(CNC(=O)C1CCN(CCc2ccccc2)CC1)c1ccc(F)cc1", "IC50": 89},
      {"smiles": "O=C(CC1(c2ccc(F)cc2)CCCCC1)NC1CCN(Cc2ccccc2)CC1", "IC50": 860},
      {"smiles": "CCC(CC)(CNC(=O)C1CCN(CCc2cccc(OC)c2)CC1)c1ccc(F)cc1", "IC50": 140},
      {"smiles": "O=C(NCC1(c2ccc(F)cc2)CCCCC1)C1CCCCN1Cc1ccccc1", "note": "(configuration not stated)", "IC50": 3000},
      {"smiles": "CCC(CC)(CNC(=O)C1CCN(CCc2ccc(OC)cc2)CC1)c1ccc(F)cc1", "IC50": 770},
      {"smiles": "CCC(CC)(CNC(=O)C1CCN(CCc2ccc(F)cc2)CC1)c1ccc(F)cc1", "IC50": 180},
      {"smiles": "O=C(NCC1(c2ccc(F)cc2)CCCCC1)C1CCCN(Cc2ccccc2)C1", "note": "(configuration not stated)", "IC50": 1200},
      {"smiles": "CCC(CC)(CNC(=O)C1CCN(CCCc2ccccc2)CC1)c1ccc(F)cc1", "IC50": 240},
      {"smiles": "CCC(CC)(CNC(=O)C1CCN(Cc2ccccc2OC)CC1)c1ccc(F)cc1", "IC50": 120}
    ]},
    {"system": "not listed separately", "assay": "Bradycardic activity in Hartley guinea pig right atrial muscles assessed as reduction of initial spontaneous beat rate after 30 mins", "format": "functional", "settings": "Cavia porcellus, Muscle tissue, 0.5 h", "units": {"EC30": "nM"}, "values": [
      {"smiles": "COc1ccc(CN2CCC(C(=O)NCC3(c4ccc(F)cc4)CCCCC3)CC2)cc1OC", "EC30": 2100},
      {"smiles": "CCC(CC)(CNC(=O)C1CCN(Cc2ccccc2F)CC1)c1ccc(F)cc1", "EC30": 4200},
      {"smiles": "COCC(=O)O[C@]1(CCN(C)CCCc2nc3ccccc3[nH]2)CCc2cc(F)ccc2[C@@H]1C(C)C", "note": "[MIBEFRADIL]", "EC30": 2900},
      {"smiles": "CCC(CC)(CNC(=O)C1CCN(CCc2ccccc2)CC1)c1ccc(F)cc1", "EC30": 2500}
    ]}
  ]
}
